Assay results published in patent US8586552B2, “4,6-substituted 2,5-dideoxystreptamine aminoglycoside antibiotics” (SelectX Pharmaceuticals, Inc., priority 2012, dated 2013).
Values after ≈ are worked out from the molar mass of the structure shown.

Assays:
Assay type in all cases: cell-based
[1] = tested on: Pseudomonas aeruginosa (Pae, PAWT, ATCC #27853); test: MIC against Pseudomonas aeruginosa reference strain PAWT; conditions: Pseudomonas aeruginosa wild type PAWT
Description: (§1) For evaluation of efficacy, we assembled panels of representative gram-negative pathogens, including Pseudomonas aeruginosa (Pae, PAWT, ATCC #27853), Klebsiella pneumoniae (Kpn, KPWT, ATCC #700603), Acinetobacter baumannii (Aba, ABWT, ATCC #BAA-747) and Escherichia coli (Eco, ECWT, ATCC #25922). These reference strains are useful indicator organisms to characterize compound activity against bacteria from a pathogenic genus in the absence of multiple resistance mechanisms. Two strains (PAWT and ECWT) are reference strains cited within the Clinical and Laboratory Standards Institute (CLSI) Standards for susceptibility testing by Minimum Inhibitory Concentration (MIC) (SXPS2) and are well suited for quality control. ABWT and ECWT are widely susceptible to aminoglycoside antibiotics, whereas PAWT and KPWT harbor a single aminoglycoside-modifying enzyme (AGME) that targets 4,6-substituted-2-deoxystreptamine AGs. […]

[2] = tested on: Klebsiella pneumoniae (Kpn, KPWT, ATCC #700603); test: MIC against Klebsiella pneumoniae reference strain KPWT; conditions: for MIC KPWT: Klebsiella pneumonia KPWT, Table 5 (unit not given), in µg/mL
Description: as §1, with “These reference strains are useful indicator organisms to characterize compound activity against bacteria from a pathogenic genus in the absence of multiple resistance mechanisms.” left out

[3] = tested on: Acinetobacter baumannii (Aba, ABWT, ATCC #BAA-747); test: MIC against Acinetobacter baumannii reference strain ABWT
Description: as §1

[4] = tested on: Pseudomonas aeruginosa PR1 (clinical isolate with intermediate aminoglycoside resistance); test: MIC against Pseudomonas aeruginosa clinical isolate PR1; conditions: Pseudomonas aeruginosa resistant strain PR1
Description: (§2) Pseudomonas aeruginosa is a prominent nosocomial pathogen. In addition to intrinsic antibiotic resistance to several antibiotics, Pseudomonas has acquired multiple additional mechanisms of resistance. As a result, therapeutic options for the treatment of infections caused by Pseudomonas aeruginosa are limited. We acquired clinical isolates of Pseudomonas aeruginosa (Micromyx LLC, Kalamazoo, Mich.), and used this panel to test compounds for Pseudomonicidal activity. […] For each strain and antibiotic, the mechanism(s) of resistance was inferred from the resistance profile. The presence of specific AGMEs was confirmed by colony PCR.

[5] = tested on: Pseudomonas aeruginosa PR2 (clinical isolate with intermediate aminoglycoside resistance); test: MIC against Pseudomonas aeruginosa clinical isolate PR2; conditions: Pseudomonas aeruginosa resistant strain PR2
Description: as §2

[6] = tested on: Pseudomonas aeruginosa PR3 (high-level, efflux-mediated, pan-aminoglycoside resistance); test: MIC against Pseudomonas aeruginosa clinical isolate PR3; conditions: for MIC PR3: Pseudomonas aeruginosa resistant strain PR3
Description: as §2

[7] = tested on: more than fifty resistant contemporary clinical isolates of Pseudomonas aeruginosa; test: MIC90 against panel of resistant clinical isolates of Pseudomonas aeruginosa
Description: To assess this, a panel of more than fifty resistant contemporary clinical isolates of Pseudomonas aeruginosa were obtained from multiple sources including JMI Laboratories (North Liberty, Iowa), Pfizer (Groton, Conn.), Micromyx (Kalamazoo, Mich.), Dr. J. Chow (Wayne State University). Strains were characterized for resistance to a wide variety of classes of antibiotics including aminoglycosides, β-lactams and fluoroquinolones. […] This reflects the difficulty in treating clinical Pseudomonas aeruginosa infections. […] Using this stringent panel, we tested a subset of compounds of the invention (Table 4).

[8] = tested on: Klebsiella pneumoniae KR1 (clinical isolate with intermediate aminoglycoside resistance); test: MIC against Klebsiella pneumoniae clinical isolate KR1; conditions: Klebsiella pneumonia KR1; in µg/mL
Description: (§3) Klebsiella pneumoniae (Kpn) and Escherichia coli (Eco) are gram-negative (like Pae), enteric pathogens with increasing clinical relevance. Many clinical isolates of Kpn and Eco harbor extended-spectrum beta-lactamases and are no longer sensitive to most beta-lactam antibiotics. We acquired clinical isolates of Klebsiella pneumoniae and Escherichia coli (Micromyx LLC, Kalamazoo, Mich.) and used this panel to test compounds for anti-enteric activity.

[9] = tested on: Klebsiella pneumoniae KR2 (clinical isolate with intermediate aminoglycoside resistance); test: MIC against Klebsiella pneumoniae clinical isolate KR2; conditions: Klebsiella pneumonia KR2
Description: as §3

[10] = tested on: Klebsiella pneumoniae KR3 (clinical isolate possessing high-level aminoglycoside resistance); test: MIC against Klebsiella pneumoniae clinical isolate KR3; conditions: Klebsiella pneumonia KR3; in µg/mL
Description: as §3

[11] = tested on: fifty resistant contemporary clinical isolates of Klebsiella pneumoniae; test: MIC90 against panel of resistant clinical isolates of Klebsiella pneumoniae; conditions: stringent panel of resistant clinical isolates, Table 5
Description: Using this stringent Klebsiella pneumoniae panel, we tested a subset of compounds of the invention.

panel of E. coli strains = test: MIC90 against a panel of E. coli strains; conditions: in µg/mL
[12] = tested on: Acinetobacter baumannii AB1; test: MIC against Acinetobacter baumannii clinical isolate AB1
Description: (§4) Acinetobacter baumannii is another clinically important and very challenging gram negative pathogen. Members of the Acinetobacter genus, including baumannii, have a remarkable ability to upregulate and acquire resistance determinants. Coupled with its ability to survive for prolonged periods in a hospital environment, A. baumannii is an emerging threat for healthcare institutions globally. We acquired clinical isolates of Acinetobacter baumannii and used this panel to test compounds for anti-Acinetobacter activity. We first tested reference AGs against our panel of Aba strains.

[13] = tested on: Acinetobacter baumannii AB2; test: MIC against Acinetobacter baumannii clinical isolate AB2
Description: as §4

[14] = tested on: Acinetobacter baumannii AB3; test: MIC against Acinetobacter baumannii clinical isolate AB3
Description: as §4

[15] = tested on: fifty resistant contemporary clinical isolates of Acinetobacter baumannii; test: MIC90 against panel of resistant clinical isolates of Acinetobacter baumannii
Description: As in the case of Pseudomonas aeruginosa and Klebsiella pneumoniae, we considered whether the SAR observed against select Acinetobacter baumannii strains 1, 2 or 3 was indicative of general potency. […] Using this stringent Acinetobacter baumannii panel, we tested a subset of compounds of the invention.

[16] = tested on: Escherichia coli (Eco, ECWT, ATCC #25922); test: MIC against Escherichia coli reference strain ECWT; conditions: ATCC25922
Description: For evaluation of efficacy, we assembled panels of representative gram-negative pathogens, including Pseudomonas aeruginosa (Pae, PAWT, ATCC #27853), Klebsiella pneumoniae (Kpn, KPWT, ATCC #700603), Acinetobacter baumannii (Aba, ABWT, ATCC #BAA-747) and Escherichia coli (Eco, ECWT, ATCC #25922). These reference strains are useful indicator organisms to characterize compound activity against bacteria from a pathogenic genus in the absence of multiple resistance mechanisms. Two strains (PAWT and ECWT) are reference strains cited within the Clinical and Laboratory Standards Institute (CLSI) Standards for susceptibility testing by Minimum Inhibitory Concentration (MIC) (SXPS2) and are well suited for quality control. ABWT and ECWT are widely susceptible to aminoglycoside antibiotics, whereas PAWT and KPWT harbor a single aminoglycoside-modifying enzyme (AGME) that targets 4,6-substituted-2-deoxystreptamine AGs.

[17] = tested on: Klebsiella pneumoniae screening panel KPWT, KR1, KR2, KR3; test: Klebsiella pneumoniae screening panel (KPWT, KR1, KR2, KR3), reference AGs
Description: as §3

[18] = tested on: Acinetobacter baumannii indicator strains (ABWT and clinical isolates); test: Acinetobacter baumannii indicator strain panel, reference AGs; conditions: read-out: activity (MIC) against 3 of the 4 indicator strains
Description: as §4

Question: Which “MIC PAWT” value [1] does the source give for `NCCC(O)C(=O)NC1CC(N)C(OC2OC(CN)C(O)CC2N)C(F)C1OC1OC(CNCC(O)CN)C(O)C(N)C1O` (stereo not drawn) [SXP 2524] here?
Answer: The value was 0.25 µg/mL (≈ 0.389 µM).

Question: What about the “MIC KPWT” value [2] of the same compound?
Answer: The value was 0.5.

Question: What about the “MIC ABWT” value [3] of the same compound?
Answer: Its value is 0.5 µg/mL (≈ 0.778 µM).

Question: And the “MIC PR1” value [4]?
Answer: The value was 4 µg/mL (≈ 6.22 µM).

Question: What about the “MIC PR2” value [5] of the same compound?
Answer: Its value is 0.5 µg/mL (≈ 0.778 µM).

Question: What about the “MIC PR3” value [6] of the same compound?
Answer: The value was 8 µg/mL (≈ 12.4 µM).

Question: And the “MIC90 Pseudomonas aeruginosa” value [7]?
Answer: Its value is 4 µg/mL (≈ 6.22 µM).

Question: And the “MIC KR1” value [8]?
Answer: Its value is 0.5-1.

Question: And the “MIC KR2” value [9]?
Answer: The value was 0.5.

Question: And the “MIC KR3” value [10]?
Answer: Its value is 0.5-1.

Question: What about the MIC90 Klebsiella pneumonia [11] of the same compound?
Answer: Its MIC90 Klebsiella pneumonia is 1 µg/mL (≈ 1.56 µM).

Question: What about the “MIC90 E. coli” value (panel of E. coli strains) of the same compound?
Answer: Its value is 2-4.

Question: What about the “MIC AB1” value [12] of the same compound?
Answer: Its value is 2 µg/mL (≈ 3.11 µM).

Question: What about the “MIC AB2” value [13] of the same compound?
Answer: The value was 1 µg/mL (≈ 1.56 µM).

Question: And the “MIC AB3” value [14]?
Answer: Its value is 8 µg/mL (≈ 12.4 µM).

Question: And the “MIC90 Acinetobacter baumannii” value [15]?
Answer: The value was 2 µg/mL (≈ 3.11 µM).

Question: Which results are given for `NCCC(O)C(=O)NC1CC(N)C(OC2OC(CN)C(O)CC2N)C(F)C1OC1OC(CNCC2CNC2)C(O)C(N)C1O` (stereo not drawn) [SXP 2525]?
Answer: MIC PAWT [1]: 0.25 to 0.5 µg/mL; MIC KPWT [2]: 0.5; MIC ABWT [3]: 0.5 µg/mL (≈ 0.783 µM); MIC PR1 [4]: 8 µg/mL (≈ 12.5 µM); MIC PR2 [5]: 1 µg/mL (≈ 1.57 µM); MIC PR3 [6]: 8 µg/mL (≈ 12.5 µM); MIC90 Pseudomonas aeruginosa [7]: 4 µg/mL (≈ 6.26 µM); MIC KR1 [8]: 1; MIC KR2 [9]: 0.5; MIC KR3 [10]: 1; MIC90 Klebsiella pneumonia [11]: 1 µg/mL (≈ 1.57 µM); MIC90 E. coli (panel of E. coli strains): 2; MIC AB1 [12]: 2 to 4 µg/mL; MIC AB2 [13]: 1 µg/mL (≈ 1.57 µM); MIC AB3 [14]: 8 µg/mL (≈ 12.5 µM); MIC90 Acinetobacter baumannii [15]: 2 µg/mL (≈ 3.13 µM)

Question: What does the source list for `NCCC(O)C(=O)NC1CC(N)C(OC2OC(CN)C(O)CC2N)C(F)C1OC1OC(CNC2CNC2)C(O)C(N)C1O` (stereo not drawn) [SXP 2554]?
Answer: MIC PAWT [1]: 0.25 µg/mL (≈ 0.4 µM); MIC KPWT [2]: 0.125; MIC ABWT [3]: 0.25 µg/mL (≈ 0.4 µM); MIC PR1 [4]: 2 µg/mL (≈ 3.2 µM); MIC PR2 [5]: 0.5 µg/mL (≈ 0.8 µM); MIC PR3 [6]: 8 µg/mL (≈ 12.8 µM); MIC90 Pseudomonas aeruginosa [7]: 4 µg/mL (≈ 6.4 µM); MIC KR1 [8]: 0.25; MIC KR2 [9]: 0.125; MIC KR3 [10]: 0.25-0.5; MIC90 Klebsiella pneumonia [11]: 0.5 µg/mL (≈ 0.8 µM); MIC90 E. coli (panel of E. coli strains): 2; MIC AB1 [12]: 0.5 µg/mL (≈ 0.8 µM); MIC AB2 [13]: 0.25 to 0.5 µg/mL; MIC AB3 [14]: 2 to 4 µg/mL; MIC90 Acinetobacter baumannii [15]: 2 µg/mL (≈ 3.2 µM)

Question: `NCC[C@H](O)C(=O)N[C@@H]1C[C@H](N)[C@@H](O[C@H]2O[C@H](CN)CC[C@H]2N)[C@H](O)[C@H]1O[C@H]1O[C@H](CO)[C@@H](O)[C@H](N)[C@H]1O` [arbekacin] was tested. Which MIC ([1]; ATCC27853) did it give?
Answer: The MIC was 0.5 µg/mL (≈ 0.905 µM).

Question: What about the MIC ([2]; ATCC700603, Klebsiella pneumoniae KPWT, Table 2) of the same compound?
Answer: The MIC was 0.25 to 0.5 µg/mL (≈ 0.452 to 0.905 µM).

Question: What about the MIC ([3]; ATCCBAA747) of the same compound?
Answer: The MIC was 0.5 µg/mL (≈ 0.905 µM).

Question: What about the MIC [16] of the same compound?
Answer: The MIC was 1 µg/mL (≈ 1.81 µM).

Question: What about the MIC [4] of the same compound?
Answer: The MIC was 8 µg/mL (≈ 14.5 µM).

Question: What about the MIC [5] of the same compound?
Answer: The MIC was 8 to 16 µg/mL (≈ 14.5 to 29 µM).

Question: And the MIC ([6]; Pseudomonas aeruginosa, read-out: MIC PR3)?
Answer: The MIC was 16 µg/mL (≈ 29 µM).

Question: And the “potency against Klebsiella pneumoniae test panel” value [17]?
Answer: Its value is “potency against 3 of 4 strains tested”.

Question: And the MIC [18]?
Answer: Its MIC is no more than 8 µg/mL.
